Experimental data: ChEMBL document CHEMBL5247592, “Discovery of novel VEGFR-2-PROTAC degraders based on the localization of lysine residues via recruiting VHL for the treatment of gastric cancer” (Eur J Med Chem, 2022)
The source made the active and inactive calls. The rule behind the calls is not given here.

Tests used:
HGC-27 [1] = assay: Induction of cell cycle arrest in human HGC-27 cells assessed as accumulation of cells at G2/M phase incubated for 24 hrs by PI staining based flow cytometric analysis; type: functional; details: dose 0.033-3.33 µM
[2] = Effect on VEGFR2 mRNA expression in human HGC-27 cells at 0.033 uM incubated for 24 hrs by qPCR analysis relative to control; type: functional
HGC-27 [3] = assay: Induction of apoptosis in human HGC-27 cells assessed as late apoptotic cells at 0.033 uM incubated for 24 hrs by Annexin V-FITC/PI staining based analysis (reference value: 3%); type: functional
[4] = target: Vascular endothelial growth factor receptor 2 (Homo sapiens, UniProt P35968); assay: Inhibition of VEGFR2 (unknown origin) at 1 uM by caliper mobility shift assay relative to control
HGC-27 [5] = assay: Induction of apoptosis in human HGC-27 cells assessed as necrotic cells at 0.33 uM incubated for 24 hrs by Annexin V-FITC/PI staining based analysis (reference value: 0.65 %); type: functional
HGC-27 [6] = assay: Induction of cell cycle arrest in human HGC-27 cells assessed as G2/M phase cells at 1 uM incubated for 24 hrs by PI staining based flow cytometric analysis (reference value: 13.3%); type: functional
HGC-27 [7] = assay: Antiinvasive activity in human HGC-27 cells assessed as reduction in number of invasive cells at 0.33 uM incubated for 24 hrs by transwell invasion assay (reference value: 118); type: functional
[8] = Cytotoxicity against HUVEC cells assessed as inhibition of cell growth incubated for 72 hrs by MTT assay; type: toxicity, cell-based; details: human
HGC-27 [9] = assay: Induction of cell cycle arrest in human HGC-27 cells assessed as S phase cells at 3.33 uM incubated for 24 hrs by PI staining based flow cytometric analysis (reference value: 26.4%); type: functional
[10] = target: T1, von Hippel-Lindau disease tumor suppressor/Vascular endothelial growth factor receptor 2 (Homo sapiens, UniProt P35968+P40337); assay: PROTAC activity at VHL/VEGFR2 in human HGC-27 cells assessed as reduction in relative VEGRF2 expression level at 1 uM preincubated with VH032 for 2 hrs followed by compound addition and measured after 24 hrs by Western blot analysis; type: cell-based
Target sequence in this assay (P35968 20-1356 limits assumed): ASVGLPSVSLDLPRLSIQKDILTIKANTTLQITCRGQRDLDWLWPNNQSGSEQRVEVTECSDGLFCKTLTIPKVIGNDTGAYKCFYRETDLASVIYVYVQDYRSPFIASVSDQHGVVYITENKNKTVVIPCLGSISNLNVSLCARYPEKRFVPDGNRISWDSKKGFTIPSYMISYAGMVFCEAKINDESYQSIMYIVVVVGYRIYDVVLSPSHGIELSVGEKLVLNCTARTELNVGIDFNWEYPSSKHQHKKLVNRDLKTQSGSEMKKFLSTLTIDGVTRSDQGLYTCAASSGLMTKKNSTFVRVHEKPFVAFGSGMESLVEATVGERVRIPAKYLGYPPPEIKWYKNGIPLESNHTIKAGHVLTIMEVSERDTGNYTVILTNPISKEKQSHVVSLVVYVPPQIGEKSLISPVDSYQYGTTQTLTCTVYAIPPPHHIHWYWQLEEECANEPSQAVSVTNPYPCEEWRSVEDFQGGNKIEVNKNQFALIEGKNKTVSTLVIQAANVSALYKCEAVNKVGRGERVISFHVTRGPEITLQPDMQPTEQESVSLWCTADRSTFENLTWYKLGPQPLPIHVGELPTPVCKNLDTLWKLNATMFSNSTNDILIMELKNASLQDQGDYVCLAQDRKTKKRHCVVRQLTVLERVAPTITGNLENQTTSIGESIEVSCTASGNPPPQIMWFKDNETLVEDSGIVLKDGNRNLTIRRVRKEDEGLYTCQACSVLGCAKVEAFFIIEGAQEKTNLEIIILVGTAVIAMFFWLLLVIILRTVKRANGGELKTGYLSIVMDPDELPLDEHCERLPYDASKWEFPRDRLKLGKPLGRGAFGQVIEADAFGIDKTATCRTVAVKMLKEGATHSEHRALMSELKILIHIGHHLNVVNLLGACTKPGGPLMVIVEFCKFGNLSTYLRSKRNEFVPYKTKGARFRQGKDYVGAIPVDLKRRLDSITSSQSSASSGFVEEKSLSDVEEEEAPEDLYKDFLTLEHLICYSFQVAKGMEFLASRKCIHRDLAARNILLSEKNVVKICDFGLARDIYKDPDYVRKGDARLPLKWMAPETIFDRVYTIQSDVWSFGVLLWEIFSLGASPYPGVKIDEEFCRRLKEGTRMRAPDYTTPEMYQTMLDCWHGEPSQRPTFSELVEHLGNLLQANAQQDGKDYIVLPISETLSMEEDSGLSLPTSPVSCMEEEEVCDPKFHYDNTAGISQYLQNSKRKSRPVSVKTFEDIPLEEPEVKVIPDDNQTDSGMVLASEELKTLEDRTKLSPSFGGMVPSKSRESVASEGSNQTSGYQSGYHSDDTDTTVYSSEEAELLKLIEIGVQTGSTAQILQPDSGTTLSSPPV
Target sequence in this assay (P40337 whole entry partner): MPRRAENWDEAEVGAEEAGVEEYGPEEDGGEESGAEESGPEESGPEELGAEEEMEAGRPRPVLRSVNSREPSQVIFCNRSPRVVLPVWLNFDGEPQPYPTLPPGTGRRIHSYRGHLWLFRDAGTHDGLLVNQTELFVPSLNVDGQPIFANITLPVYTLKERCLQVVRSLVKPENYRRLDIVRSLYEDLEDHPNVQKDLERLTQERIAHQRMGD

HGC-27 [11] = assay: Inhibition of colony formation in human HGC-27 cells incubated for 8 days by crystal violet staining based analysis; type: functional, cell-based; details: dose 0.033-3.33 µM, time 8.0 day
[12] = target: T1, von Hippel-Lindau disease tumor suppressor/Vascular endothelial growth factor receptor 2; assay: PROTAC activity at VHL/VEGFR2 in human HGC-27 cells assessed as residual activity by measuring VEGFR2 expression level at 1 uM incubated for 24 hrs followed by compound washout and measured after 8 hrs by Western blot analysis relative to control; type: cell-based
Target sequence in this assay (P35968 20-1356 limits assumed): as the sequence (P35968 20-1356 limits assumed) above
Target sequence in this assay (P40337 whole entry partner): as the sequence (P40337 whole entry partner) above

HGC-27 [13] = assay: Induction of apoptosis in human HGC-27 cells assessed as necrotic cells at 1 uM incubated for 24 hrs by Annexin V-FITC/PI staining based analysis (reference value: 0.65 %); type: functional
HGC-27 [14] = assay: Inhibition of colony formation in human HGC-27 cells at 1 to 3.33 uM incubated for 8 days by crystal violet staining based analysis relative to control; type: functional; details: dose 1-3.33 µM, time 8 day
[15] = target: T1, von Hippel-Lindau disease tumor suppressor/Vascular endothelial growth factor receptor 2; assay: PROTAC activity at VHL/VEGFR2 in human HGC-27 cells assessed as reduction in VEGFR2 protein level incubated for 24 hrs by Western blot analysis; type: cell-based
Target sequence in this assay (P35968 whole entry): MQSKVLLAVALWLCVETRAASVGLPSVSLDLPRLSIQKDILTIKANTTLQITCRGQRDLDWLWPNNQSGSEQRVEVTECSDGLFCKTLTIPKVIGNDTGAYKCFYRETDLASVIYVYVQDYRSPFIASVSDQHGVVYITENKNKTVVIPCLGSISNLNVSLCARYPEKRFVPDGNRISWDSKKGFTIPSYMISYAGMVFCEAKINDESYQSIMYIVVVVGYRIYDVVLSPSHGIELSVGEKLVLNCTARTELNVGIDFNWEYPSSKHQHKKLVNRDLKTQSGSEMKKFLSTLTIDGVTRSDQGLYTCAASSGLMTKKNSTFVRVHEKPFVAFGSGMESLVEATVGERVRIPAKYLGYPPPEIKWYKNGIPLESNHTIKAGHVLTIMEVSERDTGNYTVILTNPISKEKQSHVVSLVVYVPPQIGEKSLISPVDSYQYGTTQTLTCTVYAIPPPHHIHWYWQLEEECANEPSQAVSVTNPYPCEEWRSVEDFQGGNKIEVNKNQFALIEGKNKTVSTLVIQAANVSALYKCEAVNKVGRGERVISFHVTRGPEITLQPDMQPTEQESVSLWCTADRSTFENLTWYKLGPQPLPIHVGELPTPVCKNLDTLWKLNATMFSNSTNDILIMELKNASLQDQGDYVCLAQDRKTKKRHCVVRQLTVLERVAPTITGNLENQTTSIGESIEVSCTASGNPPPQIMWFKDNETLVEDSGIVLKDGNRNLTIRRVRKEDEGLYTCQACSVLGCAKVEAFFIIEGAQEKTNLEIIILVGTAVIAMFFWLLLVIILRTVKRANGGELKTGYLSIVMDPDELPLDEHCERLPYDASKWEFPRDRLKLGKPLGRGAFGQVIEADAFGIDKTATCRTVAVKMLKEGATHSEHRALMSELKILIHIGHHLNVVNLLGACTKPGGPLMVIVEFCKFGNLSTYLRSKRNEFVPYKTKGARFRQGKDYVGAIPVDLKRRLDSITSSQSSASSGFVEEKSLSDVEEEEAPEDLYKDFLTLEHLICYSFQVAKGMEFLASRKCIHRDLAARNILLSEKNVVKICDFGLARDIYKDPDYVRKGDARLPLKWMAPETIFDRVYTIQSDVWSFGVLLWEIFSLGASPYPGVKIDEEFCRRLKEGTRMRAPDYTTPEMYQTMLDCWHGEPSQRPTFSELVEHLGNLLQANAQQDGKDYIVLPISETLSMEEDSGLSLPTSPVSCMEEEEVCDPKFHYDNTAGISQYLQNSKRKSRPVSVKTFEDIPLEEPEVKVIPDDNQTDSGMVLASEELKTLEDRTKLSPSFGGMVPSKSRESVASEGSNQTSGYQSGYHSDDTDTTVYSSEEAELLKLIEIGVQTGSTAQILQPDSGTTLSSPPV
Target sequence in this assay (P40337 whole entry): as the sequence (P40337 whole entry partner) above

HGC-27 [16] = assay: Induction of cell cycle arrest in human HGC-27 cells assessed as G2/M phase cells at 0.33 uM incubated for 24 hrs by PI staining based flow cytometric analysis (reference value: 13.3%); type: functional
[17] = target: T1, von Hippel-Lindau disease tumor suppressor/Vascular endothelial growth factor receptor 2; assay: PROTAC activity at VHL/VEGFR2 in human HGC-27 cells assessed as induction of VEGRF2 protein degradation at 1 uM preincubated with 4-Amino-N-(6-(1-(2-((4-methyl-3-(trifluoromethyl)phenyl)amino)-2-oxoethyl)-1H-pyrazol-4-y1)-1H-indazol-3-Abenzamide for 2 hrs followed by compound addition and measured after 24 hrs by Western blot analysis; type: cell-based
Target sequence in this assay (P35968 20-1356 limits assumed): as the sequence (P35968 20-1356 limits assumed) above
Target sequence in this assay (P40337 whole entry partner): as the sequence (P40337 whole entry partner) above

[18] = target: T1, von Hippel-Lindau disease tumor suppressor/Vascular endothelial growth factor receptor 2; assay: PROTAC activity at VHL/VEGFR2 in human HGC-27 cells assessed as residual activity by measuring VEGFR2 expression level at 1 uM incubated for 24 hrs followed by compound washout and measured after 24 hrs by Western blot analysis relative to control; type: cell-based
Target sequence in this assay (P35968 20-1356 limits assumed): as the sequence (P35968 20-1356 limits assumed) above
Target sequence in this assay (P40337 whole entry partner): as the sequence (P40337 whole entry partner) above

HGC-27 [19] = assay: Induction of apoptosis in human HGC-27 cells assessed as necrotic cells at 0.033 uM incubated for 24 hrs by Annexin V-FITC/PI staining based analysis (reference value: 0.65 %); type: functional
HGC-27 [20] = assay: Induction of apoptosis in human HGC-27 cells assessed as early apoptotic cells at 1 uM incubated for 24 hrs by Annexin V-FITC/PI staining based analysis (reference value: 1.7 %); type: functional
HGC-27 [21] = assay: Induction of apoptosis in human HGC-27 cells assessed as late apoptotic cells at 1 uM incubated for 24 hrs by Annexin V-FITC/PI staining based analysis (reference value: 3%); type: functional
HGC-27 [22] = assay: Antiinvasive activity in human HGC-27 cells assessed as reduction in number of invasive cells at 0.033 uM incubated for 24 hrs by transwell invasion assay (reference value: 118); type: functional
HGC-27 [23] = assay: Induction of apoptosis in human HGC-27 cells assessed as early apoptotic cells at 0.1 uM incubated for 24 hrs by Annexin V-FITC/PI staining based analysis (reference value: 1.7 %); type: functional
HGC-27 [24] = assay: Induction of cell cycle arrest in human HGC-27 cells assessed as G0/G1 phase cells at 0.33 uM incubated for 24 hrs by PI staining based flow cytometric analysis (reference value: 47.4%); type: functional
HGC-27 [25] = assay: Inhibition of cell migration in human HGC-27 cells assessed as suppression of cell migration at 1 uM incubated for 24 hrs by wound healing assay relative to control; type: functional
HGC-27 [26] = assay: Induction of cell cycle arrest in human HGC-27 cells assessed as G0/G1 phase cells at 0.1 uM incubated for 24 hrs by PI staining based flow cytometric analysis (reference value: 47.4%); type: functional
HGC-27 [27] = assay: Induction of apoptosis in human HGC-27 cells assessed as necrotic cells at 0.1 uM incubated for 24 hrs by Annexin V-FITC/PI staining based analysis (reference value: 0.65 %); type: functional
HGC-27 [28] = assay: Inhibition of cell migration in human HGC-27 cells assessed as suppression of cell migration at 3.3 uM incubated for 24 hrs by wound healing assay relative to control; type: functional
HGC-27 [29] = assay: Inhibition of cell migration in human HGC-27 cells at 0.033 to 3.33 uM by wound healing assay; type: functional, cell-based; details: dose 0.033-3.33 µM, time <= 24.0 hrs, TDE = time-dependent effect
HGC-27 [30] = assay: Induction of cell cycle arrest in human HGC-27 cells assessed as S phase cells at 0.033 uM incubated for 24 hrs by PI staining based flow cytometric analysis (reference value: 26.4%); type: functional
HGC-27 [31] = assay: Induction of apoptosis in human HGC-27 cells assessed as early apoptotic cells at 3.3 uM incubated for 24 hrs by Annexin V-FITC/PI staining based analysis (reference value: 1.7 %); type: functional
[32] = target: T1, von Hippel-Lindau disease tumor suppressor/Vascular endothelial growth factor receptor 2; assay: PROTAC activity at VHL/VEGFR2 in human HGC-27 cells assessed as induction of VEGFR2 degradation at 1 uM measured after 8 hrs by Western blot analysis relative to control; type: cell-based
Target sequence in this assay (P35968 20-1356 limits assumed): as the sequence (P35968 20-1356 limits assumed) above
Target sequence in this assay (P40337 whole entry partner): as the sequence (P40337 whole entry partner) above

[33] = target: T1, von Hippel-Lindau disease tumor suppressor/Vascular endothelial growth factor receptor 2; assay: PROTAC activity at VHL/VEGFR2 in human HGC-27 cells assessed as reduction in relative VEGRF2 expression level at 1 uM preincubated with MG-132 for 2 hrs followed by compound addition and measured after 24 hrs by Western blot analysis; type: cell-based
Target sequence in this assay (P35968 20-1356 limits assumed): as the sequence (P35968 20-1356 limits assumed) above
Target sequence in this assay (P40337 whole entry partner): as the sequence (P40337 whole entry partner) above

Vascular endothelial growth factor receptor 2, sequence (P35968 whole entry): as the sequence (P35968 whole entry) above

- inhibition [4]: 97.5%
- Activity [10]: inactive
- Activity [12]: 46%
- EC50 [15]: 0.084 µM
- Activity [17]: inactive
- Activity [18]: 77%
- Activity [32]: 18.2%
- Activity [33]: inactive
SMILES: Cc1ccc(NC(=O)Cn2cc(-c3ccc4c(NC(=O)c5ccc(NC(=O)CCCCCCCCC(=O)N[C@H](C(=O)N6C[C@H](O)C[C@H]6C(=O)NCc6ccc(-c7scnc7C)cc6)C(C)(C)C)cc5)n[nH]c4c3)cn2)cc1C(F)(F)F
- Activity (HGC-27 [1]): Dose-Dependent Effect
- Activity [2]: 99.3%
- Activity (HGC-27 [3]): 3%
- Activity (HGC-27 [5]): 0.96%
- Activity (HGC-27 [6]): 45.9%
- Activity (HGC-27 [7]): 36
- IC50 at 72 h [8]: 7.07 µM
- Activity (HGC-27 [9]): 21.2%
- inhibition (HGC-27 [11]): Dose-Dependent Effect
- Activity (HGC-27 [13]): 0.64%
- inhibition (INH) (HGC-27 [14]): 100%
- Activity (HGC-27 [16]): 37.7%
- Activity (HGC-27 [19]): 0.32%
- Activity (HGC-27 [20]): 8.6%
- Activity (HGC-27 [21]): 14.2%
- Activity (HGC-27 [22]): 116
- Activity (HGC-27 [23]): 3.5%
- Activity (HGC-27 [24]): 23.9%
- inhibition at 1 µM (HGC-27 [25]): 21.2%
- Activity (HGC-27 [26]): 44.3%
- Activity (HGC-27 [27]): 0.46%
- inhibition at 3.3 µM (HGC-27 [28]): 32.7%
- inhibition (HGC-27 [29]): Tde
- Activity (HGC-27 [30]): 27.9%
- Activity (HGC-27 [31]): 15%
